Measured values published in patent US11464763B2, “Parasiticidal compositions comprising an isoxazoline active agent, methods and uses thereof” (BOEHRINGER INGELHEIM ANIMAL HEALTH USA INC., priority 2011, dated 2022).

Columns and labels:
Assay type in all cases: in vivo
Rhipicephalus sanguineus [1] = test: Spot-on efficacy against Rhipicephalus sanguineus ticks on dogs, 40% DES/DMI (Example 5); details: 4.0 mg/kg
Method: The efficacy of a formulation comprising an isoxazoline compound (Cmpd. A) in a carrier comprising 40% DES/DMI against Ctenocephalides felis fleas and Rhipicephalus sanguineus ticks in Dogs was studied. […] Three treatment groups containing three dogs each were evaluated. All dogs were treated once topically on Day 0 by parting the hair and applying the solution from a syringe directly onto the skin in a single spot on the midline of the neck between the base of the skull and the shoulder blades.
Treatment Group 1 was a placebo control and received 0.067 mL/kg of body weight. Treatment Group 2 was administered a topical spot-on formulation comprising 6.0% (w/v) Cmpd. A in 40% DES/DMI to deliver a dose of 4.0 mg/kg body weight. Treatment Group 3 was administered a topical spot-on formulation comprising 12% (w/v) Cmpd. A in 40% DES/DMI to deliver a dose of 4.0 mg/kg body weight.

Rhipicephalus sanguineus [2] = test: Spot-on efficacy against Rhipicephalus sanguineus ticks in dogs, three DES formulations (Example 6); details: for % Reduction: 48 h count
Method: A further study was conducted to examine the efficacy of a topical formulations comprising Compound A in three different formulations containing DES against ticks in dogs. Twenty-four beagles were studied to determine the effectiveness against induced infestations of Rhipicephalus sanguineus of spot-on formulations comprising Cmpd. A in different carriers administered at 4.0 mg/kg to dogs.
Treatment Group 1 dogs were treated with a placebo solution. Treatment Group 2 was treated with a formulation comprising 6% (w/v) Cmpd. A in DES; Treatment Group 3 were treated with a composition comprising 6% (w/v) Cmpd. A in 40% DES/DMI; and Treatment Group 4 were treated with a formulation comprising 6% (w/v) Cmpd. A in DES with 30% Capryol 90. All dogs were treated once topically on Day 0. Topical solutions were applied by parting the hair and applying the solution from a syringe directly onto the skin in a single spot on the midline of the neck between the base of the skull and the shoulder blades.
All dogs were infested with approximately 50 R. sanguineus on Days −1, 7, 14, 21, 28, 35 and 42. Ticks were counted upon removal from dogs on Days 2, 9, 16, 23, 30, 37, and 44. All ticks were counted upon removal at 48 (±3) hours post treatment or infestation.
The percent efficacies of the treated groups compared to the untreated control group were determined for the 48 hour post-treatment/infestation counts. Treatment Group 3 maintained ≥90% efficacy 48 hours after infestation at every sampling time from Day 9 through Day 44. Treatment Group 2 was able to maintain at least 90% efficacy 48 hours after infestation throughout the six weeks of the study.

[3] = tested on: Rhipicephalus (Boophilus) microplus; test: Pour-on tick count efficacy against Rhipicephalus (Boophilus) microplus in cattle (Example 15)
Method: The efficacy of two pour-on formulations of the invention comprising Compound A at doses of 2.5 mg/kg and 10 mg/kg were tested against infestations of Rhipicephalus (Boophilus) microplus ticks compared with an untreated control. Five healthy head of cattle of 6 to 15 months of age weighing between 100 to 200 kg were used in each study group. Cattle in Group 1 were untreated (control). Cattle in Group 2 were treated on Day 0 with a pour-on formulation comprising Compound A at a concentration of 2.5% (w/v) in DES at a dose of 2.5 mg/kg; and cattle in Group 3 were treated on Day 0 with a pour-on formulation comprising Compound A at a concentration of 10% (w/v) in DES at a dose of 10 mg/kg. Several weeks before treatment, cattle are infested three times a week with approximately 2500 Rhipicephalus (Boophilus) microplus larvae to establish ongoing infestations. Cattle in Groups 2 and 3 were treated with the respective compositions on Day 0 by measuring the required amount of the solution into a marked disposable syringe and applying the material evenly along the mid-line of the back of each animal from the withers to the tail head.
Each animal was challenged by infestation with approximately 5000 R. microplus larvae on Days 7 and 21 and every 14 days thereafter. Ticks dropping from each animal in the previous 24 hours were collected daily and counted from Day 1 until the end of the study. Since the life cycle of the ticks from the point of infestation with larvae until engorged ticks fall off is approximately 21 days (average), the assessment of efficacy for the challenges on Days 7 and 21 and every 14 days thereafter, was done for a range of 7 or 8 days starting approximately 21 days after the challenge. The assessment of efficacy at the beginning of the study was done from day 1 until Day 21.
In addition, the ticks collected were weighed as a group to measure the impact of the treatment on the weight gain of the ticks compared to the control to assess the vitality and reproductive capability of the treated ticks. […] Tables 16A and 16B show the % efficacy of the two pour-on formulations based on the weight of the ticks collected. […] As evidenced from the tables and the figures, the pour-on formulations of the invention at both 2.5 mg/kg and 10 mg/kg provide excellent efficacy against Rhipicephalus (Boophilus) microplus ticks for an extended period of time. […] Furthermore, as shown in Tables 16A and 16B, the two pour-on compositions were extremely effective against ticks based on the weight of the ticks collected. […] The extremely long lasting efficacy above 90% for pour-on composition against Rhipicephalus (Boophilus) microplus ticks is remarkable compared with pour-on formulations known in the art.

## O=C(CNC(=O)c1ccc(C2=NOC(c3cc(Cl)cc(C(F)(F)F)c3)(C(F)(F)F)C2)c2ccccc12)NCC(F)(F)F (stereo not drawn) [Compound A, 4-[5-[3-chloro-5-(trifluoromethyl)phenyl]-4,5-dihydro-5-(trifluoromethyl)-3-isoxazolyl]-N-[2-oxo-2-[(2,2,2-trifluoroethyl)amino]ethyl]-1-naphthalanecarboxamide]
Rhipicephalus sanguineus [1]; Group 2: 6.0% in 40% DES/DMI, Day 2
  % Reduction: 100.0%
Rhipicephalus sanguineus [1]; Group 2: 6.0% in 40% DES/DMI, Day 30
  % Reduction: 91.5%
Rhipicephalus sanguineus [1]; Group 2: 6.0% in 40% DES/DMI, Day 31
  % Reduction: 100.0%
Rhipicephalus sanguineus [1]; Group 2: 6.0% in 40% DES/DMI, Day 38
  % Reduction: 85.2%
Rhipicephalus sanguineus [1]; Group 3: 12% in 40% DES/DMI, Day 2
  % Reduction: 100.0%
Rhipicephalus sanguineus [1]; Group 3: 12% in 40% DES/DMI, Day 30
  % Reduction: 72.6%
Rhipicephalus sanguineus [1]; Group 3: 12% in 40% DES/DMI, Day 31
  % Reduction: 100.0%
Rhipicephalus sanguineus [1]; Group 3: 12% in 40% DES/DMI, Day 38
  % Reduction: 51.3%
Rhipicephalus sanguineus [2]; Group 2: 6% in DES, 4.0 mg/kg, Day 2
  % Reduction: 93.2%
Rhipicephalus sanguineus [2]; Group 2: 6% in DES, 4.0 mg/kg, Day 9
  % Reduction: 100.0%
Rhipicephalus sanguineus [2]; Group 2: 6% in DES, 4.0 mg/kg, Day 16
  % Reduction: 100.0%
Rhipicephalus sanguineus [2]; Group 2: 6% in DES, 4.0 mg/kg, Day 23
  % Reduction: 100.0%
Rhipicephalus sanguineus [2]; Group 2: 6% in DES, 4.0 mg/kg, Day 30
  % Reduction: 97.8%
Rhipicephalus sanguineus [2]; Group 2: 6% in DES, 4.0 mg/kg, Day 37
  % Reduction: 95.3%
Rhipicephalus sanguineus [2]; Group 2: 6% in DES, 4.0 mg/kg, Day 44
  % Reduction: 97.5%
Rhipicephalus sanguineus [2]; Group 3: 6% in 40% DES/DMI, 4.0 mg/kg, Day 2
  % Reduction: 72.8%
Rhipicephalus sanguineus [2]; Group 3: 6% in 40% DES/DMI, 4.0 mg/kg, Day 9
  % Reduction: 100.0%
Rhipicephalus sanguineus [2]; Group 3: 6% in 40% DES/DMI, 4.0 mg/kg, Day 16
  % Reduction: 100.0%
Rhipicephalus sanguineus [2]; Group 3: 6% in 40% DES/DMI, 4.0 mg/kg, Day 23
  % Reduction: 100.0%
Rhipicephalus sanguineus [2]; Group 3: 6% in 40% DES/DMI, 4.0 mg/kg, Day 30
  % Reduction: 100.0%
Rhipicephalus sanguineus [2]; Group 3: 6% in 40% DES/DMI, 4.0 mg/kg, Day 37
  % Reduction: 93.5%
Rhipicephalus sanguineus [2]; Group 3: 6% in 40% DES/DMI, 4.0 mg/kg, Day 44
  % Reduction: 82.9%
Rhipicephalus sanguineus [2]; Group 4: 6% in DES with 30% Capryol 90, 4.0 mg/kg, Day 2
  % Reduction: 97.2%
Rhipicephalus sanguineus [2]; Group 4: 6% in DES with 30% Capryol 90, 4.0 mg/kg, Day 9
  % Reduction: 100.0%
Rhipicephalus sanguineus [2]; Group 4: 6% in DES with 30% Capryol 90, 4.0 mg/kg, Day 16
  % Reduction: 100.0%
Rhipicephalus sanguineus [2]; Group 4: 6% in DES with 30% Capryol 90, 4.0 mg/kg, Day 23
  % Reduction: 100.0%
Rhipicephalus sanguineus [2]; Group 4: 6% in DES with 30% Capryol 90, 4.0 mg/kg, Day 30
  % Reduction: 98.4%
Rhipicephalus sanguineus [2]; Group 4: 6% in DES with 30% Capryol 90, 4.0 mg/kg, Day 37
  % Reduction: 96.1%
Rhipicephalus sanguineus [2]; Group 4: 6% in DES with 30% Capryol 90, 4.0 mg/kg, Day 44
  % Reduction: 78.1%
Rhipicephalus sanguineus [2]; Treatment Group 2, throughout the six weeks of the study
  efficacy 48 hours after infestation: ≥ 90%
Rhipicephalus sanguineus [2]; Treatment Group 3, Day 9 through Day 44
  efficacy 48 hours after infestation: ≥ 90%
[3]; Group 2: pour-on 2.5% (w/v) in DES, 2.5 mg/kg, Day 1-21
  Average % Efficacy (Tick Count): 58.8%
[3]; Group 2: pour-on 2.5% (w/v) in DES, 2.5 mg/kg, Day 28-34, Challenge Day 7
  Average % Efficacy (Tick Count): 75.6%
[3]; Group 2: pour-on 2.5% (w/v) in DES, 2.5 mg/kg, Day 41-48, Challenge Day 21
  Average % Efficacy (Tick Count): 77.0%
[3]; Group 2: pour-on 2.5% (w/v) in DES, 2.5 mg/kg, Day 55-62, Challenge Day 35
  Average % Efficacy (Tick Count): 91.2%
[3]; Group 2: pour-on 2.5% (w/v) in DES, 2.5 mg/kg, Day 69-76, Challenge Day 49
  Average % Efficacy (Tick Count): 88.3%
[3]; Group 2: pour-on 2.5% (w/v) in DES, 2.5 mg/kg, Day 83-90, Challenge Day 63
  Average % Efficacy (Tick Count): 90.7%
[3]; Group 2: pour-on 2.5% (w/v) in DES, 2.5 mg/kg, Day 97-104, Challenge Day 77
  Average % Efficacy (Tick Count): 79.8%
[3]; Group 2: pour-on 2.5% (w/v) in DES, 2.5 mg/kg, Day 111-118, Challenge Day 91
  Average % Efficacy (Tick Count): 79.0%
[3]; Group 2: pour-on 2.5% (w/v) in DES, 2.5 mg/kg, Day 132-139, Challenge Day 112
  Average % Efficacy (Tick Count): 86.2%
[3]; Group 2: pour-on 2.5% (w/v) in DES, 2.5 mg/kg, Day 146-153, Challenge Day 126
  Average % Efficacy (Tick Count): 30.3%
[3]; Group 2: pour-on 2.5% (w/v) in DES, 2.5 mg/kg, Day 160-167, Challenge Day 140
  Average % Efficacy (Tick Count): 74.0%
[3]; Group 3: pour-on 10% (w/v) in DES, 10 mg/kg, Day 1-21
  Average % Efficacy (Tick Count): 78.1%
[3]; Group 3: pour-on 10% (w/v) in DES, 10 mg/kg, Day 28-34, Challenge Day 7
  Average % Efficacy (Tick Count): 92.0%
[3]; Group 3: pour-on 10% (w/v) in DES, 10 mg/kg, Day 41-48, Challenge Day 21
  Average % Efficacy (Tick Count): 98.0%
[3]; Group 3: pour-on 10% (w/v) in DES, 10 mg/kg, Day 55-62, Challenge Day 35
  Average % Efficacy (Tick Count): 97.8%
[3]; Group 3: pour-on 10% (w/v) in DES, 10 mg/kg, Day 69-76, Challenge Day 49
  Average % Efficacy (Tick Count): 99.3%
[3]; Group 3: pour-on 10% (w/v) in DES, 10 mg/kg, Day 83-90, Challenge Day 63
  Average % Efficacy (Tick Count): 98.9%
[3]; Group 3: pour-on 10% (w/v) in DES, 10 mg/kg, Day 97-104, Challenge Day 77
  Average % Efficacy (Tick Count): 92.4%
[3]; Group 3: pour-on 10% (w/v) in DES, 10 mg/kg, Day 111-118, Challenge Day 91
  Average % Efficacy (Tick Count): 96.6%
[3]; Group 3: pour-on 10% (w/v) in DES, 10 mg/kg, Day 132-139, Challenge Day 112
  Average % Efficacy (Tick Count): 92.4%
[3]; Group 3: pour-on 10% (w/v) in DES, 10 mg/kg, Day 146-153, Challenge Day 126
  Average % Efficacy (Tick Count): 72.4%
[3]; Group 3: pour-on 10% (w/v) in DES, 10 mg/kg, Day 160-167, Challenge Day 140
  Average % Efficacy (Tick Count): 85.8%
[3]; pour-on 2.5 mg/kg and 10 mg/kg, for at least day 139
  tick count efficacy: above 90%
